Several values for one entry are separate records, joined by “and”; a condition that tells them apart may be missing. Equal entries are not always repeated. Inconclusive results and toxic doses are left out. Square brackets hold non-standard residues; d marks the D form. Peptide text beside a SMILES is read from it. * marks the point of attachment. ξ: configuration not given here. Pentanoyl = CCCCC(=O)*; ξP = O=C(O)C1CCCN1; Ava = NCCCCC(=O)O
Tested on: L1210 leukemia ip in BDF1 mice, survival T/C
Test: NCI In Vivo Anticancer Drug Screen. Data for tumor model L1210 Leukemia (intraperitoneal) in B6D2F1 (BDF1) mice
Conditions: endpoint: mean survival time, higher = longer survival
In short: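 Mice bearing the transplanted tumor received compound or vehicle. Survival of the treated group was divided by that of the vehicle-treated control group to give the ratio.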

[1] = dose: 100.0 mg/kg/injection, schedule: Q01DX001 (ip), vehicle: Klucel (hydroxypropylcellulose) (HPC)
[2] = dose: 200.0 mg/kg/injection, schedule: Q01DX001 (ip), vehicle: Klucel (hydroxypropylcellulose) (HPC)
[3] = dose: 100.0 mg/kg/injection, schedule: Q04DX003 (ip), vehicle: Klucel (hydroxypropylcellulose) (HPC)
[4] = dose: 400.0 mg/kg/injection, schedule: Q04DX003 (ip), vehicle: Klucel (hydroxypropylcellulose) (HPC)
[5] = dose: 100.0 mg/kg/injection, schedule: Q01DX009 (ip), vehicle: saline
[6] = dose: 100.0 mg/kg/injection, schedule: Q04DX003 (ip), vehicle: saline
[7] = dose: 50.0 mg/kg/injection, schedule: Q01DX001 (ip), vehicle: Klucel (hydroxypropylcellulose) (HPC)
[8] = dose: 100.0 mg/kg/injection, schedule: Q01DX001 (ip), vehicle: saline
[9] = dose: 200.0 mg/kg/injection, schedule: Q01DX001 (ip), vehicle: saline
[10] = dose: 400.0 mg/kg/injection, schedule: Q01DX001 (ip), vehicle: saline
[11] = dose: 100.0 mg/kg/injection, schedule: Q04DX003 (ip), vehicle: saline with Tween-80

## C=CC[P+](c1ccccc1)(c1ccccc1)c1ccccc1
dose: 1.56 mg/kg/injection, schedule: Q01DX009 (ip), vehicle: Klucel (hydroxypropylcellulose) (HPC)
  T/C: 103 % of control
dose: 3.12 mg/kg/injection, schedule: Q01DX009 (ip), vehicle: Klucel (hydroxypropylcellulose) (HPC)
  T/C: 101 % of control
dose: 5.0 mg/kg/injection, schedule: Q01DX001 (ip), vehicle: saline
  T/C: 104 % of control
dose: 6.25 mg/kg/injection, schedule: Q01DX009 (ip), vehicle: Klucel (hydroxypropylcellulose) (HPC)
  T/C: 94 % of control
dose: 9.5 mg/kg/injection, schedule: Q01DX001 (ip), vehicle: other
  T/C: 107 % of control
dose: 10.0 mg/kg/injection, schedule: Q01DX001 (ip), vehicle: saline
  T/C: 98 % of control
dose: 12.5 mg/kg/injection, schedule: Q01DX009 (ip), vehicle: Klucel (hydroxypropylcellulose) (HPC)
  T/C: 103 % of control
dose: 19.0 mg/kg/injection, schedule: Q01DX001 (ip), vehicle: other
  T/C: 100 % of control
dose: 20.0 mg/kg/injection, schedule: Q01DX001 (ip), vehicle: saline
  T/C: 102 % of control
dose: 38.0 mg/kg/injection, schedule: Q01DX001 (ip), vehicle: other
  T/C: 102 % of control

## CC(=O)Nc1ccc2[nH]c(C)cc(=O)c2c1
dose: 100.0 mg/kg/injection, schedule: Q01DX009 (ip), vehicle: water
  T/C: 98 % of control
dose: 100.0 mg/kg/injection, schedule: Q04DX003 (ip), vehicle: water
  T/C: 110 % of control
dose: 200.0 mg/kg/injection, schedule: Q01DX009 (ip), vehicle: water
  T/C: 96 % of control
dose: 200.0 mg/kg/injection, schedule: Q04DX003 (ip), vehicle: water
  T/C: 110 % of control
dose: 400.0 mg/kg/injection, schedule: Q01DX009 (ip), vehicle: water
  T/C: 100 % of control
dose: 400.0 mg/kg/injection, schedule: Q04DX003 (ip), vehicle: water
  T/C: 107 % of control

## CN(C)CC/C(=N\N=C(N)N)c1ccccc1
dose: 15.0 mg/kg/injection, schedule: Q01DX Z (ip), vehicle: methylcellulose (MC)
  T/C: 96 % of control
dose: 30.0 mg/kg/injection, schedule: Q01DX Z (ip), vehicle: methylcellulose (MC)
  T/C: 90 % of control
dose: 30.0 mg/kg/injection, schedule: Q01DX Z (oral), vehicle: methylcellulose (MC)
  T/C: 89 % of control
dose: 60.0 mg/kg/injection, schedule: Q01DX Z (ip), vehicle: methylcellulose (MC)
  T/C: 94 % of control
dose: 60.0 mg/kg/injection, schedule: Q01DX Z (oral), vehicle: methylcellulose (MC)
  T/C: 91 % of control

## Nc1ccc2oc(=O)c(C(=O)O)cc2c1
[1]
  T/C: 112 % of control
[2]
  T/C: 89 % of control

## O=C(O)c1ccccc1C(=O)OC1CC2C=CC1C21CC1 (centres undefined)
dose: 50.0 mg/kg/injection, schedule: Q01DX009 (ip), vehicle: Klucel (hydroxypropylcellulose) (HPC)
  T/C: 98 % of control
dose: 100.0 mg/kg/injection, schedule: Q01DX009 (ip), vehicle: Klucel (hydroxypropylcellulose) (HPC)
  T/C: 96 % of control and 95 % of control
[3]
  T/C: 95 % of control
dose: 200.0 mg/kg/injection, schedule: Q01DX009 (ip), vehicle: Klucel (hydroxypropylcellulose) (HPC)
  T/C: 100 % of control and 113 % of control
dose: 200.0 mg/kg/injection, schedule: Q04DX003 (ip), vehicle: Klucel (hydroxypropylcellulose) (HPC)
  T/C: 104 % of control and 106 % of control
[4]
  T/C: 101 % of control

## CC(C)c1ccc(C(=O)Nc2ccc(OCCCc3c(N)nc(N)nc3N)cc2)cc1S(=O)(=O)F
[1]
  T/C: 93 % of control
[2]
  T/C: 98 % of control
dose: 400.0 mg/kg/injection, schedule: Q01DX001 (ip), vehicle: Klucel (hydroxypropylcellulose) (HPC)
  T/C: 96 % of control

## C[N+](C)(CCO)CC(O)c1ccc(C(O)C[N+](C)(C)CCO)cc1 (centres undefined)
dose: 0.05 mg/kg/injection, schedule: Q04DX003 (ip), vehicle: saline
  T/C: 102 % of control
dose: 0.1 mg/kg/injection, schedule: Q04DX003 (ip), vehicle: saline
  T/C: 104 % of control
dose: 0.2 mg/kg/injection, schedule: Q04DX003 (ip), vehicle: saline
  T/C: 93 % of control

## CCN(CC)CCOC(=O)c1ccc(N)cc1
dose: 12.5 mg/kg/injection, schedule: Q01DX009 (ip), vehicle: saline
  T/C: 97 % of control
dose: 25.0 mg/kg/injection, schedule: Q01DX009 (ip), vehicle: saline
  T/C: 103 % of control
dose: 25.0 mg/kg/injection, schedule: Q04DX003 (ip), vehicle: saline
  T/C: 101 % of control
dose: 50.0 mg/kg/injection, schedule: Q01DX009 (ip), vehicle: saline
  T/C: 100 % of control and 95 % of control
dose: 50.0 mg/kg/injection, schedule: Q04DX003 (ip), vehicle: saline
  T/C: 111 % of control
[5]
  T/C: 100 % of control and 101 % of control
[6]
  T/C: 101 % of control

## CC1(CCCc2ccc(N)cc2)N=C(N)N=C(N)N1c1ccccc1 (centres undefined)
[7]
  T/C: 106 % of control
[1]
  T/C: 112 % of control
[2]
  T/C: 110 % of control

## COc1cc(Nc2c3ccccc3nc3ccccc23)ccc1NS(C)(=O)=O
dose: 10.0 mg/kg/injection, schedule: Q01DX009 (ip), vehicle: saline with Tween-80
  T/C: 154 % of control

## Nc1ccccc1SC1CC(=O)N(c2cccc3ccccc23)C1=O (centres undefined)
[3]
  T/C: 89 % of control
[4]
  T/C: 90 % of control

## O=S(=O)(O)c1ccc(-c2c3nc(c(-c4ccc(S(=O)(=O)O)cc4)c4ccc([nH]4)c(-c4ccc(S(=O)(=O)O)cc4)c4nc(c(-c5ccc(S(=O)(=O)O)cc5)c5ccc2[nH]5)C=C4)C=C3)cc1
dose: 12.5 mg/kg/injection, schedule: Q01DX009 (ip), vehicle: saline with Tween-80
  T/C: 90 % of control
dose: 25.0 mg/kg/injection, schedule: Q01DX009 (ip), vehicle: saline with Tween-80
  T/C: 90 % of control
dose: 50.0 mg/kg/injection, schedule: Q01DX009 (ip), vehicle: saline with Tween-80
  T/C: 98 % of control
dose: 100.0 mg/kg/injection, schedule: Q01DX009 (ip), vehicle: saline with Tween-80
  T/C: 88 % of control

## COc1cc(N)c2ncccc2c1SC
[5]
  T/C: 108 % of control
[6]
  T/C: 93 % of control
dose: 200.0 mg/kg/injection, schedule: Q01DX009 (ip), vehicle: saline
  T/C: 107 % of control
dose: 200.0 mg/kg/injection, schedule: Q04DX003 (ip), vehicle: saline
  T/C: 95 % of control
dose: 400.0 mg/kg/injection, schedule: Q01DX009 (ip), vehicle: saline
  T/C: 116 % of control
dose: 400.0 mg/kg/injection, schedule: Q04DX003 (ip), vehicle: saline
  T/C: 102 % of control

## Cc1ccccc1C1=CCCCCC1
dose: 50.0 mg/kg/injection, schedule: Q01DX001 (ip), vehicle: saline
  T/C: 93 % of control
[8]
  T/C: 93 % of control
[9]
  T/C: 98 % of control
[10]
  T/C: 107 % of control

## Nc1nc(N)c(-c2ccc(Cl)c(Cl)c2)c(COc2ccc(CNS(=O)(=O)c3ccc(S(=O)(=O)F)cc3)cc2Cl)n1
dose: 25.0 mg/kg/injection, schedule: Q01DX001 (ip), vehicle: Klucel (hydroxypropylcellulose) (HPC)
  T/C: 94 % of control
[7]
  T/C: 94 % of control
[1]
  T/C: 96 % of control

## CC1CC(C)(C)N=C(C(Cc2ccccc2)CC(O)c2ccccc2)O1 (centres undefined)
dose: 25.0 mg/kg/injection, schedule: Q04DX003 (ip), vehicle: saline with Tween-80
  T/C: 94 % of control
dose: 50.0 mg/kg/injection, schedule: Q04DX003 (ip), vehicle: saline with Tween-80
  T/C: 92 % of control
[11]
  T/C: 86 % of control and 90 % of control

## CC(C)(C)c1cc(Cc2cc(C(C)(C)C)c(O)c(C(C)(C)C)c2)cc(C(C)(C)C)c1O
[11]
  T/C: 96 % of control
dose: 200.0 mg/kg/injection, schedule: Q04DX003 (ip), vehicle: saline with Tween-80
  T/C: 98 % of control
dose: 400.0 mg/kg/injection, schedule: Q04DX003 (ip), vehicle: saline with Tween-80
  T/C: 104 % of control

## C1=C(COC(c2ccccc2)(c2ccccc2)c2ccccc2)CCCC1
dose: 100.0 mg/kg/injection, schedule: Q01DX001 (ip), vehicle: carboxymethylcellulose (CMC)
  T/C: 87 % of control
dose: 400.0 mg/kg/injection, schedule: Q01DX001 (ip), vehicle: carboxymethylcellulose (CMC)
  T/C: 87 % of control

## CCCCC(=O)NCC(=O)N1CCCC1C(=O)NCCCCC(=O)OC (centres undefined) (Pentanoyl-Gly-[ξP]-[Ava]-OMe)
[8]
  T/C: 98 % of control
[9]
  T/C: 95 % of control
[10]
  T/C: 95 % of control

## CCSC(SCC)C(N)C(O)C(O)C(O)CO (centres undefined)
dose: 50.0 mg/kg/injection, schedule: Q04DX002 (ip), vehicle: saline
  T/C: 103 % of control
dose: 100.0 mg/kg/injection, schedule: Q04DX002 (ip), vehicle: saline
  T/C: 103 % of control
dose: 200.0 mg/kg/injection, schedule: Q04DX002 (ip), vehicle: saline
  T/C: 109 % of control

Source: PubChem BioAssay AID248 (DTP/NCI, 2004)
